In ChEMBL document CHEMBL5370608, “Selective and Bioavailable HDAC6 2-(Difluoromethyl)-1,3,4-oxadiazole Substrate Inhibitors and Modeling of Their Bioactivation Mechanism” (J Med Chem, 2023):

How the values were obtained:
THP-1 = test: Cytotoxicity against human THP-1 cells assessed as reduction in cell viability by alamar blue staining based assay; assay type: functional
Histone deacetylase 5 = Histone deacetylase 5 (Homo sapiens, UniProt Q9UQL6); test: Inhibition of human recombinant HDAC5 incubated for 30 mins by fluorimetry analysis
[1] = Volume of distribution at steady state in Wistar Han rat at 1 mg/kg, po or 0.5 mg/kg, iv measured upto 24 hrs by LC-MS/MS analysis; assay type: ADME, organism-based; details: in vivo
[2] = biological target: T1, Protein deacetylase HDAC6 (Homo sapiens, UniProt Q9UBN7); test: Inhibition of HDAC6 in human BEAS-2B cells assessed as deacetylation of acetylated alpha-tubulin level incubated for 24 hrs by Western blot analysis; assay type: cell-based
T1 sequence (Q9UBN7 whole entry): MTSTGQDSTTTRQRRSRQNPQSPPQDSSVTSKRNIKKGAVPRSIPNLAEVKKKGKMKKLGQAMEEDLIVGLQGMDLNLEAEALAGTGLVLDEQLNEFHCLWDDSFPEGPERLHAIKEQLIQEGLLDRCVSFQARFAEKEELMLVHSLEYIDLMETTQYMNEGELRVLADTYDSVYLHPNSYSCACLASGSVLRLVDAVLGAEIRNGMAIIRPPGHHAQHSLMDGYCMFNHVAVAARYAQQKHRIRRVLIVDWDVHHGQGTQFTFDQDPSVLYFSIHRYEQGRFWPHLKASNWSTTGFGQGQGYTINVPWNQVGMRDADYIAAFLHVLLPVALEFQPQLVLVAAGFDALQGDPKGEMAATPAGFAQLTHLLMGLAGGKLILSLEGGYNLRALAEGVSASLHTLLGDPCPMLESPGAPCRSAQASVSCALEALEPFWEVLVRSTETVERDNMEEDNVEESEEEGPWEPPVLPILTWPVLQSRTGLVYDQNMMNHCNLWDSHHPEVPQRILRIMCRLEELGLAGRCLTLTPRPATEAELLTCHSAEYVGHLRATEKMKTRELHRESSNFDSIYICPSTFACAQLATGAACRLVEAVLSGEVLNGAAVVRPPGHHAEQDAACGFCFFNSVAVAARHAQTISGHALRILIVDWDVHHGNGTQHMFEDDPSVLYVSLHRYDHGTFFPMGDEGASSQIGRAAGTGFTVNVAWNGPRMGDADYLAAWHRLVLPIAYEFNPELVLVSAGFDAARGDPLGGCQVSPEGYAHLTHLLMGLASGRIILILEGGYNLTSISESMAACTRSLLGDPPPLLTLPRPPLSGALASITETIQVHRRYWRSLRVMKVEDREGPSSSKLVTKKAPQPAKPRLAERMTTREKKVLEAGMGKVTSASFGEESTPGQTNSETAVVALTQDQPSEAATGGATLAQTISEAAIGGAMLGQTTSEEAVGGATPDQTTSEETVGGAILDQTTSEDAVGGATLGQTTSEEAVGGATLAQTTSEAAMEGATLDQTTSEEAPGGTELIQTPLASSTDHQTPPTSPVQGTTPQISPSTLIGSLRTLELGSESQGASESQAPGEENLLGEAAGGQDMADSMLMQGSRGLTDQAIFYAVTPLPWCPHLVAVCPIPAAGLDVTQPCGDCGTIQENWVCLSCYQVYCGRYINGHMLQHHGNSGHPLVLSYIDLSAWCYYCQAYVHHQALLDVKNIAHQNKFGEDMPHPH

Histone deacetylase 7 = biological target: T2, Histone deacetylase 7 (Homo sapiens, UniProt Q8WUI4); test: Inhibition of human recombinant HDAC7 incubated for 30 mins by fluorimetry analysis
T2 sequence (Q8WUI4 whole entry): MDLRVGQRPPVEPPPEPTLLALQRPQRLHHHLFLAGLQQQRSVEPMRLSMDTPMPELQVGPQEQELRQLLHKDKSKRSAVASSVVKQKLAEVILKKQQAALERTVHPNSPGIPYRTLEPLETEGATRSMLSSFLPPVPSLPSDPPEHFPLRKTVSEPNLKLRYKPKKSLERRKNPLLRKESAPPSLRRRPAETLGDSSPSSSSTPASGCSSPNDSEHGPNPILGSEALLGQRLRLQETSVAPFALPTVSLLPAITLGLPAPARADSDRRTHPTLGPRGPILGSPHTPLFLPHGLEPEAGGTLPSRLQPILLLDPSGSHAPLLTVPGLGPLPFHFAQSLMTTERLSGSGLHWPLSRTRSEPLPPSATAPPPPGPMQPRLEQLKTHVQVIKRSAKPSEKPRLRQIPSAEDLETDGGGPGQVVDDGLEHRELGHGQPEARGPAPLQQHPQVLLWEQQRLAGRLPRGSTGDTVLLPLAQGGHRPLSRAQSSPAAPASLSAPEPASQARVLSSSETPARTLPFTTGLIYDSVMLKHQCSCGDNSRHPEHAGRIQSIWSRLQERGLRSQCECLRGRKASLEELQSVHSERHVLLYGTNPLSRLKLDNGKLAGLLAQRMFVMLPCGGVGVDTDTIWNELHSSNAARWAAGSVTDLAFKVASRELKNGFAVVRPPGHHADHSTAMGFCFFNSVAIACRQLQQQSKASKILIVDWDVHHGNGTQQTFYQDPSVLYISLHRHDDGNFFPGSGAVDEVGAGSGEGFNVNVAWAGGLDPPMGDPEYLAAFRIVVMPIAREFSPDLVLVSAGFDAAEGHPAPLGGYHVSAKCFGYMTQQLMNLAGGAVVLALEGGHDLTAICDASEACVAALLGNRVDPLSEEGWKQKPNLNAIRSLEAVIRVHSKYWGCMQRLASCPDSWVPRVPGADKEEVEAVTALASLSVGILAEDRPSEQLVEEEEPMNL

[3] = biological target: T1, Protein deacetylase HDAC6; test: Inhibition of human recombinant HDAC6 incubated for 30 mins by fluorimetry analysis
Histone deacetylase 9 = Histone deacetylase 9 (Homo sapiens, UniProt Q9UKV0); test: Inhibition of human recombinant HDAC9 incubated for 30 mins by fluorimetry analysis
Histone deacetylase 4 = Histone deacetylase 4 (Homo sapiens, UniProt P56524); test: Inhibition of human recombinant HDAC4 incubated for 30 mins by fluorimetry analysis
[4] = Clearance in Wistar Han rat at 0.5 mg/kg, iv measured upto 24 hrs by LC-MS/MS analysis; assay type: ADME, organism-based; details: in vivo
[5] = Half life in Wistar Han rat at 0.5 mg/kg, iv measured upto 24 hrs by LC-MS/MS analysis; assay type: ADME, organism-based; details: in vivo
[6] = Plasma protein binding in human assessed as unbound fraction; assay type: ADME, cell-free
Histone deacetylase 2 = Histone deacetylase 2 (Homo sapiens, UniProt Q92769); test: Inhibition of human recombinant HDAC2 incubated for 15 mins by fluorimetry analysis
[7] = Metabolic stability in rat hepatocytes assessed as intrinsic clearance at 1 uM measured per 10^6 cells incubated at 2 to 60 mins by LC-MS/MS analysis; assay type: ADME, cell-based, Hepatocyte; details: time 2-60 min, read-out: CLH
[8] = Chemical stability of compound in HCL solution at pH 1 assessed as half life by UPLC analysis; assay type: physicochemical
[9] = Chemical stability of compound in sodium phosphate buffer at pH 7.4 assessed as half life by UPLC analysis; assay type: physicochemical
[10] = Chemical stability of compound in sodium carbonate buffer at pH 10 assessed as half life by UPLC analysis; assay type: physicochemical

Sequence of Histone deacetylase 4 (P56524 whole entry): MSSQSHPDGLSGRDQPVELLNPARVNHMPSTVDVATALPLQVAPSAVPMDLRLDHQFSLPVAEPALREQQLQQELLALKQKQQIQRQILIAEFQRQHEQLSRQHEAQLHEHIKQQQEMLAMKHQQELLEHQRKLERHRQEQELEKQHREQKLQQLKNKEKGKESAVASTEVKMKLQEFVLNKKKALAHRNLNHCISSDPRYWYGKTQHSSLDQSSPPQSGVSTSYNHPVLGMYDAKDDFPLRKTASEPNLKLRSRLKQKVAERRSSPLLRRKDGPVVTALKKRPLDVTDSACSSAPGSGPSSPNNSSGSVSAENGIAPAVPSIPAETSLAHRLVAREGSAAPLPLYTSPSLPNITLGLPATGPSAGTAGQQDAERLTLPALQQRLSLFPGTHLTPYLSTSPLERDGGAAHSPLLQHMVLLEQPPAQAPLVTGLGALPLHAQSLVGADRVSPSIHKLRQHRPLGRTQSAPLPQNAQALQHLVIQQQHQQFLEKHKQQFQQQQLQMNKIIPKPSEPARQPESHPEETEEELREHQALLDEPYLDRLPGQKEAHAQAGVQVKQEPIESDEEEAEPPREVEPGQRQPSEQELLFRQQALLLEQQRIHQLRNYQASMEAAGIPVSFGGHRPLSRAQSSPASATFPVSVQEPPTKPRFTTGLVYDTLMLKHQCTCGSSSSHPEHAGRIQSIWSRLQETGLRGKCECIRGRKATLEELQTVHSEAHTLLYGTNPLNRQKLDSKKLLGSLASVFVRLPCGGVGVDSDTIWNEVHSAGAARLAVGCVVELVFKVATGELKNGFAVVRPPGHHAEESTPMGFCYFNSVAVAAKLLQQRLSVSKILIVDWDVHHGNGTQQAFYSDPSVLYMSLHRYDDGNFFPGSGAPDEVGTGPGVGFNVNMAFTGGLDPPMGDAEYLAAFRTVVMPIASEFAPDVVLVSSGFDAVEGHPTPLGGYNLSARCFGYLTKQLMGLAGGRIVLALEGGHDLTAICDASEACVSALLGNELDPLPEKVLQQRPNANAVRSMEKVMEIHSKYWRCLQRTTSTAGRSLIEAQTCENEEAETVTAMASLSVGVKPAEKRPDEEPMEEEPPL
Sequence of Histone deacetylase 5 (Q9UQL6 whole entry): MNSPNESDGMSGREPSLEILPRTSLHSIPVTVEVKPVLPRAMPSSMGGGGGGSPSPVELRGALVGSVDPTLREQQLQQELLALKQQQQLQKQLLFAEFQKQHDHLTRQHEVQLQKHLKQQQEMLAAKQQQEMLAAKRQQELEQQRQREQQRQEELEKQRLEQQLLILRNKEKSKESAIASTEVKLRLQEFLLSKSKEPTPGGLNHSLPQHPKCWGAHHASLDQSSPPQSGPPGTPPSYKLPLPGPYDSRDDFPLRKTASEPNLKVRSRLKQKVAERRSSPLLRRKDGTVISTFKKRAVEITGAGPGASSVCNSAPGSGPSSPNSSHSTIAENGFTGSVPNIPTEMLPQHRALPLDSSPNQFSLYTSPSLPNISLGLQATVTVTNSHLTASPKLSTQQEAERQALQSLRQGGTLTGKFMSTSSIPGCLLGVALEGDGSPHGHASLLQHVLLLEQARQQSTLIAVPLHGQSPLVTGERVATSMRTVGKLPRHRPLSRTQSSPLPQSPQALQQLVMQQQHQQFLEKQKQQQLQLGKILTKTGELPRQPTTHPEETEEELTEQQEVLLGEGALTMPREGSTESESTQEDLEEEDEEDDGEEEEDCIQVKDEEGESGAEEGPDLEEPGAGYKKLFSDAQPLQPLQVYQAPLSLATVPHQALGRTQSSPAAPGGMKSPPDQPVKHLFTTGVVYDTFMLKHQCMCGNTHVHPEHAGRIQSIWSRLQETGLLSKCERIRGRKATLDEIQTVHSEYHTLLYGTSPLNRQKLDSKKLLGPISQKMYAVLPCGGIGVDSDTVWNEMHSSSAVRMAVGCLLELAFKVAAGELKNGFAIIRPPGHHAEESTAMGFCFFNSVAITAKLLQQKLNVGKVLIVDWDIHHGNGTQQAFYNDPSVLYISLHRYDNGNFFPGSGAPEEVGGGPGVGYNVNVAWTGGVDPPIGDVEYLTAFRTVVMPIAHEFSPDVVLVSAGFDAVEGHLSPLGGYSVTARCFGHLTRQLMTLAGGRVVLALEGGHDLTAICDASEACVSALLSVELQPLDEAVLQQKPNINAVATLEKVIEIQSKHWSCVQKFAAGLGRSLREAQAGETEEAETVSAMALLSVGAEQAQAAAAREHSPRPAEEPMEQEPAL
Sequence of Histone deacetylase 2 (Q92769 whole entry): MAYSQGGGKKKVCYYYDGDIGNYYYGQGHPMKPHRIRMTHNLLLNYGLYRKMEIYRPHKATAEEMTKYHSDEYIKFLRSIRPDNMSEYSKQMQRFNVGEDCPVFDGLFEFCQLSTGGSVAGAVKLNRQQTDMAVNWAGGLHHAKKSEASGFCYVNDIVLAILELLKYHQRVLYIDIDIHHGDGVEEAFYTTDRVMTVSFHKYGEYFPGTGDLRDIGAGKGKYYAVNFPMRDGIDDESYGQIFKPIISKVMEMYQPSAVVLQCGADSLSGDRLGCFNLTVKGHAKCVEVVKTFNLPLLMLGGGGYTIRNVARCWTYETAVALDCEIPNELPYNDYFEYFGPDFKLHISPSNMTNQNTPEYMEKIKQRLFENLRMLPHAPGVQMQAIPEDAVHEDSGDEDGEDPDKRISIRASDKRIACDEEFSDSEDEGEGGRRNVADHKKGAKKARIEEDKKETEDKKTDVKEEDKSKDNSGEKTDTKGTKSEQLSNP
Sequence of Histone deacetylase 9 (Q9UKV0 whole entry): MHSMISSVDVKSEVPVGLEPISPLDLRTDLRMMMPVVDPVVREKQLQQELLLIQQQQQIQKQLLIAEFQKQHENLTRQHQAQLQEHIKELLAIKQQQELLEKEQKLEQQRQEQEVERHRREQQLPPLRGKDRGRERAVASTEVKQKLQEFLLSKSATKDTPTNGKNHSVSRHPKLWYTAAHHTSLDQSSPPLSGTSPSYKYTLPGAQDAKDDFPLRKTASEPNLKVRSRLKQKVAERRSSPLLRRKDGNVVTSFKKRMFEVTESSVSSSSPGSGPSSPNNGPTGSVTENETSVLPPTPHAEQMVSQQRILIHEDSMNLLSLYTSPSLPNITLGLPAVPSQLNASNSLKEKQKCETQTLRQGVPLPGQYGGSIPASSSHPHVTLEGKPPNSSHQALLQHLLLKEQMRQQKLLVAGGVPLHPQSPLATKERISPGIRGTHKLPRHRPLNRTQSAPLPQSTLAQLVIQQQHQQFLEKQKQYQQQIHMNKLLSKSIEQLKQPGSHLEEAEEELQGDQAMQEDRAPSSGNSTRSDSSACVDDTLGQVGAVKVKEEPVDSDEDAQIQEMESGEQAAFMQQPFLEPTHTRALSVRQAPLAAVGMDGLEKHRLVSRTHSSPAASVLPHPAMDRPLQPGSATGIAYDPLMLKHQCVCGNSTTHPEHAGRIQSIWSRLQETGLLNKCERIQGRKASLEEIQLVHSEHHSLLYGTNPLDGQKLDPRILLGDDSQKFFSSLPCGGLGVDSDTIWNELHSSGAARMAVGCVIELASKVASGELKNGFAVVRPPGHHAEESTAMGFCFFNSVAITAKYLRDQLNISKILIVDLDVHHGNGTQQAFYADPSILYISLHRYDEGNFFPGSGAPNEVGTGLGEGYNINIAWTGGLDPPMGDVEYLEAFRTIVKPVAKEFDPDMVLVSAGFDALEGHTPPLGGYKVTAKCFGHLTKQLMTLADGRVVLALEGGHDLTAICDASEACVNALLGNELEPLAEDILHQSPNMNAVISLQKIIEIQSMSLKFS

IC50 (Histone deacetylase 5) | Vdss [1] | EC50 [2] | IC50 (Histone deacetylase 7) | IC50 [3] | IC50 (Histone deacetylase 9) | IC50 (Histone deacetylase 4) | clearance [4] | half-life [5] | fraction unbound [6] | IC50 (Histone deacetylase 2) | hepatocyte CLint at 1 µM [7] | half-life [8] | half-life [9] | half-life [10] | SMILES | IC50 (THP-1; read-out: IC50) | IC50 (THP-1; read-out: pIC50 (converted))
3.7 µM | 2.2 L/kg | 0.0794 µM | 6.5 µM | < 0.01 µM | 19 µM | 12 µM | 180 mL/min/kg | 0.3 h | 0.23 | 71 µM | 51 µL/min/1e6 cells | – | – | – | O=C(NO)c1cnc(NC2(c3ccccc3)CCC(F)(F)CC2)nc1 | 94 µM | 100 µM
> 100 µM | – | 0.316 µM | > 100 µM | 0.17 µM | > 100 µM | > 100 µM | – | – | – | > 100 µM | – | – | – | – | COc1ccccc1-c1nnn(Cc2ccc(-c3nnc(C(F)F)o3)cn2)n1 | – | –
> 100 µM | – | 0.0631 µM | 30 µM | 0.58 µM | 19 µM | 14 µM | – | – | – | > 100 µM | – | 11.8 h | 221 h | 7.2 h | CS(=O)(=O)NCC(Nc1ncc(-c2nnc(C(F)F)o2)cn1)c1ccc(OC(F)(F)F)cc1 (centres undefined) | 126 µM | 126 µM
> 100 µM | 1.8 L/kg | 0.251 µM | > 100 µM | 0.19 µM | > 100 µM | > 100 µM | 3.2 mL/min/kg | 7.3 h | 0.13 | > 100 µM | < 1 µL/min/1e6 cells | 7.68 h | 84 h | < 13.7 h | FC(F)c1nnc(-c2ccc(Cn3nnc(-c4ccccn4)n3)nc2)o1 | – | > 251 µM
